Here are results for 4 molecules from ChEMBL document CHEMBL5120938, “Development of BET Inhibitors as Potential Treatments for Cancer: Optimization of Pharmacokinetic Properties” (ACS Med Chem Lett, 2022).

As a reminder, the IC50 is the concentration that gives 50% inhibition. What is called half-life is the time in which the quantity being followed falls by half.

For series [1], the target named is Bromodomain-containing protein 4 (Homo sapiens, UniProt O60885). The series can be described thus: Inhibition of N-terminal His6-tagged recombinant human BRD4 (44 to 168 residues) expressed in Escherichia coli BL21 (DE3) incubated for 60 mins by TR-FRET assay.
The nature of series [2]: Inhibition of c-MYC expression in human JJN-3R cells measured after 4 hrs. The series is classed as functional, cell-based.
Series [3] is described as follows: Antiproliferative activity against human JJN-3R cells assessed as inhibition of cell proliferation measured after 72 hrs by MTS assay. The series is classed as functional, cell-based. On the technique in general: Tetrazolium dyes change colour on reduction, which living cells bring about.
Series [4] is described as follows: Metabolic stability in alamethicin treated human liver microsomes assessed as half life pretreated for 5 mins followed by NADPH addition and measured up to 45 mins by LC-MS/MS analysis. The series is classed as ADME, Microsome. The conditions noted are these: time < 50 min. In general terms: Liver microsomes are vesicles of endoplasmic reticulum, rich in cytochrome P450 enzymes.

Series [5] can be described thus: Metabolic stability in alamethicin treated Sprague-Dawley rat liver microsomes assessed as half life pretreated for 5 mins followed by NADPH addition and measured up to 45 mins by LC-MS/MS analysis. The format is ADME, Microsome. The conditions noted are these: time < 50 min.
Series [6] can be described thus: Metabolic stability in alamethicin treated CD-1 mouse liver microsomes assessed as half life pretreated for 5 mins followed by NADPH addition and measured up to 45 mins by LC-MS/MS analysis. The format is ADME, Microsome. The conditions noted are these: time < 50 min.
A short description of series [7]: Metabolic stability in alamethicin treated Beagle dog liver microsomes assessed as half life pretreated for 5 mins followed by NADPH addition and measured up to 45 mins by LC-MS/MS analysis. The conditions noted are these: time < 50 min. The series is classed as ADME, Canis lupus familiaris, Microsome.
Series [8] in a line: Metabolic stability in alamethicin treated cynomologus monkey liver microsomes assessed as half life pretreated for 5 mins followed by NADPH addition and measured up to 45 mins by LC-MS/MS analysis. The series is classed as ADME, Macaca fascicularis, Microsome. Particulars: cynomolgus monkey, time < 50 min.
The nature of series [9]: Metabolic stability in alamethicin treated human liver microsomes assessed as half life pretreated for 5 mins followed by UDPGA addition and measured up to 45 mins by LC-MS/MS analysis. Particulars: time < 50 min. The format is ADME, Microsome.
Series [10] in a line: Metabolic stability in alamethicin treated Sprague-Dawley rat liver microsomes assessed as half life pretreated for 5 mins followed by UDPGA addition and measured up to 45 mins by LC-MS/MS analysis. The series is classed as ADME, Microsome. The conditions noted are these: time < 50 min.
The nature of series [11]: Metabolic stability in alamethicin treated CD-1 mouse liver microsomes assessed as half life pretreated for 5 mins followed by UDPGA addition and measured up to 45 mins by LC-MS/MS analysis. The format is ADME, Microsome. Particulars: time < 50 min.
Series [12] in a line: Metabolic stability in alamethicin treated Beagle dog liver microsomes assessed as half life pretreated for 5 mins followed by UDPGA addition and measured up to 45 mins by LC-MS/MS analysis. The format is ADME, Canis lupus familiaris, Microsome. Particulars: Beagle, liver microsomes, time < 50 min.
Series [13] can be described thus: Metabolic stability in alamethicin treated cynomologus monkey liver microsomes assessed as half life pretreated for 5 mins followed by UDPGA addition and measured up to 45 mins by LC-MS/MS analysis. Particulars: cynomolgus monkey, time < 50 min. The series is classed as ADME, Macaca fascicularis, Microsome.
Series [14] is described as follows: Efflux ratio of apparent permeability across […] in human Caco-2 cells after 2 hrs by liquid scintillation counting analysis. The series is classed as ADME, cell-based. Particulars: caco-2, 2 h.

SMILES strings stand for the structures.

Turning to `[2H]C([2H])([2H])c1nnn(C)c1-c1cnc2c3ccc(C(C)(C)O)c(F)c3n([C@H](c3ccccc3)C3CCOCC3)c2c1`, the results for the IC50 in series [1], in series [2] and in series [3] were 1 nM, 1.5 nM and 5 nM, respectively. Further, the half-life in series [4] amounted to 67 min; in series [5], 38 min; in series [6] it was 42 min; in series [7], 69 min; in series [8], 29 min; in series [9], 120 min. For the same molecule, the half-life amounted to 6 min in series [10], 120 min in series [11], 120 min in series [12] and 120 min in [13]. For the same molecule, the Ratio in series [14] was found to be 1.4.

For `Cc1nnn(C)c1-c1cnc2c3ccc(C(C)(O)C(F)(F)F)c(F)c3n([C@H](c3ccccc3)C3CCOCC3)c2c1` (stereo partly specified), the results for the IC50 in [1], in [2] and in series [3] were 3 nM, 1.5 nM and 9 nM, respectively. The half-life in [4] is 40 min; in [5], 49 min; in [6], 58 min; in series [7], 42 min; in series [8] it was 49 min; in series [9] it was 120 min. Moreover, the half-life was 51 min in series [10], 120 min in series [11], 120 min in series [12] and 120 min in [13]. In series [14], the Ratio came to 1.1.

`[2H]C([2H])([2H])c1nnn(C)c1-c1cnc2c3ccc(C(C)(C)O)c(Cl)c3n([C@H](c3ccccc3)C3CCOCC3)c2c1`: the IC50 worked out at 1.1 nM in series [1], 1.2 nM in [2] and 7 nM in series [3]. For the same molecule, the half-life turned out to be 56 min in series [4]; 35 min in [5]; 25 min in series [6]; 35 min in [7]; 30 min in [8]; 120 min in series [9]. For the same molecule, the half-life in [10] came out at 6 min; in series [11], 120 min; in series [12] it was 120 min; in series [13], 120 min. The Ratio in series [14] came out at 1.2.

As to `[2H]C([2H])([2H])c1nnn(C)c1-c1cnc2c3cc(Cl)c(C(C)(C)O)cc3n([C@H](c3ccccc3)C3CCOCC3)c2c1`, the IC50 in [1] worked out at 2.2 nM; in [2], 2 nM; in series [3], 3 nM. Also, the half-life worked out at 38 min in series [4]; 39 min in [5]; 34 min in [6]; 33 min in series [7]; 45 min in series [8]; 110 min in [9]. Also, the half-life in series [10], in series [11], in [12] and in [13] was 120 min each time. Further, the Ratio in series [14] came to 1.4.
